Laboratory results from patent US20190117716A1, “FATTY ACID COMPOSITION AND PHARMACEUTICAL PREPARATION AND APPLICATION THEREOF” (priority 2011, published 2019).

Test: single fatty acids used alone (inventor's research)
Details: any one fatty acid used alone, compared with the combination

SMILES | curative effect when used alone
CCCCCCCCCCCCCCCCCCCC(=O)O [arachidic acid] | relatively unobvious
CCCCC/C=C\C/C=C\CCCCCCCC(=O)O [linoleic acid] | relatively unobvious
CCCCCCCC/C=C\CCCCCCCC(=O)O [oleic acid] | relatively unobvious
CCCCCCCCCCCCCCCC(=O)O [palmitic acid] | relatively unobvious
CCCCCC/C=C\CCCCCCCC(=O)O [palmitoleic acid] | relatively unobvious
CCCCCCCCCCCCCCCCCC(=O)O [stearic acid] | relatively unobvious
